Source: the supplement of paper PMC10307832

Assays:
Experiment in all cases: relative viability (nuclei count vs DMSO), 5 days (fraction); higher = more cells survive
Imatinib + Alpelisib = compound: Cc1ccc(NC(=O)c2ccc(CN3CCN(C)CC3)cc2)cc1Nc1nccc(-c2cccnc2)n1 [Imatinib] + Cc1nc(NC(=O)N2CCC[C@H]2C(N)=O)sc1-c1ccnc(C(C)(C)C(F)(F)F)c1 [Alpelisib] (partner 2 µM)
Summary of the method: (§1)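 After 5 days of treatment, lung cancer cells in 1536-well plates were fixed and stained in a single step (final 0.05% Triton X-100, 1% formaldehyde, 1 ug/ml Hoechst) and their nuclei counted on 4× images. Treatment had been applied by pin tool the day after seeding as one drug alone or as a fixed anchor-drug dose with five library-drug doses (not always all listed) in √10 steps. Relative viability is the nuclei count of treated wells divided by that of vehicle wells, and values are medians of duplicate plates.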

Imatinib + Dasatinib = compound: Cc1ccc(NC(=O)c2ccc(CN3CCN(C)CC3)cc2)cc1Nc1nccc(-c2cccnc2)n1 [Imatinib] + Cc1nc(Nc2ncc(C(=O)Nc3c(C)cccc3Cl)s2)cc(N2CCN(CCO)CC2)n1 [Dasatinib] (partner 0.075 µM)
Summary of the method: as §1

Imatinib + Olaparib = compound: Cc1ccc(NC(=O)c2ccc(CN3CCN(C)CC3)cc2)cc1Nc1nccc(-c2cccnc2)n1 [Imatinib] + O=C(c1cc(Cc2n[nH]c(=O)c3ccccc23)ccc1F)N1CCN(C(=O)C2CC2)CC1 [Olaparib] (partner 8 µM)
Summary of the method: as §1

Imatinib + Tozasertib = compound: Cc1ccc(NC(=O)c2ccc(CN3CCN(C)CC3)cc2)cc1Nc1nccc(-c2cccnc2)n1 [Imatinib] + Cc1cc(Nc2cc(N3CCN(C)CC3)nc(Sc3ccc(NC(=O)C4CC4)cc3)n2)n[nH]1 [Tozasertib] (partner 0.1 µM)
Summary of the method: as §1

UMC-11
relative viability (Imatinib + Alpelisib; first compound 0.02 µM): 0.982
relative viability (Imatinib + Alpelisib; first compound 0.06325 µM): 1.18
relative viability (Imatinib + Alpelisib; first compound 0.2 µM): 0.957
relative viability (Imatinib + Alpelisib; first compound 0.6325 µM): 1.03
relative viability (Imatinib + Alpelisib; first compound 2 µM): 1.03
relative viability (Imatinib + Dasatinib; first compound 0.02 µM): 0.527
relative viability (Imatinib + Dasatinib; first compound 0.06325 µM): 0.34
relative viability (Imatinib + Dasatinib; first compound 0.2 µM): 0.619
relative viability (Imatinib + Dasatinib; first compound 0.6325 µM): 0.507
relative viability (Imatinib + Dasatinib; first compound 2 µM): 0.457
relative viability (Imatinib + Olaparib; first compound 0.02 µM): 0.352
relative viability (Imatinib + Olaparib; first compound 0.06325 µM): 0.514
relative viability (Imatinib + Olaparib; first compound 0.2 µM): 0.366
relative viability (Imatinib + Olaparib; first compound 0.6325 µM): 0.41
relative viability (Imatinib + Olaparib; first compound 2 µM): 0.301
relative viability (Imatinib + Tozasertib; first compound 0.02 µM): 0.192
relative viability (Imatinib + Tozasertib; first compound 0.06325 µM): 0.205
relative viability (Imatinib + Tozasertib; first compound 0.2 µM): 0.216
relative viability (Imatinib + Tozasertib; first compound 0.6325 µM): 0.211
relative viability (Imatinib + Tozasertib; first compound 2 µM): 0.208
